# Tests used:
# [1] = tested on: E15 DIV3 mouse hippocampal neurons; assay: Pretreatment with antibodies or inhibitors before proNGF addition, growth cone / filopodial collapse; format: cell-based; details: for effect of pretreatment on proNGF-induced growth cone / filopodial collapse: pretreatment before proNGF for 20 min, 20 μg/ml antibody or control IgG 20 min, 100 nM Gö6976
# Description: (§1) To assay which pathways are involved in filopodial collapse, 5-10 ng/ml proNGF, 10 ng/ml proBDNF, 25-50 ng/ml BDNF (Peprotech) or 25-100 ng/ml NGF (Harlan) was added to E15 primary hippocampal neurons for 20 min before fixation. In some cases, cells were pretreated with 100 nM K-252a (Calbiochem) for 20 min, 100 nM Gö6976 (Calbiochem) for 1 hour, 5 μM EHT1864 (Sigma) for 30 min or 100 nM ITX3 (ChemBridge Corporation, cat. no. 6007262) for 45 min. To block SorCS2, cells were incubated with 20 μg/ml anti-SorCS2 or control IgG for 20 min on ice before proNGF addition at 37° C.
# (§2) DIV3 hippocampal neurons were fixed in 4% paraformaldehyde/20% sucrose for 10 min. The fixative was quenched with 50 mM NH4Cl in PBS for 5 min and cells were permeabilized with 0.1% TritonX-100 in PBS for 2 min. Alternatively, cells were fixed with ice-cold methanol for 5 min. Coverslips were blocked with 10% normal donkey serum, 2% bovine serum albumin and 0.25% fish skin gelatin in Tris-buffered saline for 30 min, incubated with primary antibodies diluted in blocking solution for 30 min, washed three times with Tris-buffered saline/0.25% fish skin gelatin, incubated with secondary antibodies mixed with Hoechst in blocking buffer for additional 30 min, washed and mounted using Mowio1488. Cells were imaged using a LSM510 laser-scanning confocal microscope equipped with a 40× Plan Neofluor NA1.3 DIC oil-immersion objective (Carl Zeiss Microimaging). Images were processed using LSM510 software (Zeiss) and ImageJ (NIH).
# (§3) Primary hippocampal and cortical neurons were isolated from E15 C57BL/6 mouse embryos as previously described (PEREIRA, D. B. et al., Journal of Neuroscience 27:4859-4869 (2007)). Briefly, neurons were dissociated by incubation with 0.05% trypsin at 37° C. for 8 min followed by trituration with fire-polished glass Pasteur pipettes. Cells were plated on poly-D-lysine coated dishes and grown in Neurobasal medium containing B27, 0.5 mM glutamine (all Invitrogen) and 10 μM 5-fluorodeoxyuridine. Hippocampal neurons were transfected at DIV2 using Lipofectamine2000 (Invitrogen). For coverslips in a 24-well plate, 0.5 μg plasmid were mixed with 0.5 μl Lipofectamine2000, and for glass bottom dishes, 1.5 μg plasmid were mixed with 1.5 μl Lipofectamine2000. The complexes were added to the cells for 30-45 min, and then neurons were placed back into preconditioned media until analysis the following day. HT1080 cells were grown in DMEM/10% fetal bovine serum (both Invitrogen) and transfected using the AMAXA nucleofector (Lonza) according to manufacturer's instructions. 293FT cells were grown in DMEM/10% fetal bovine serum and transfected with Lipofectamine2000 according to manufacturer's instructions.
# [2] = tested on: E15 DIV3 mouse hippocampal neurons; assay: proNT-induced growth cone collapse in cultured hippocampal neurons (live imaging and immunofluorescence); format: cell-based; details: for growth cone collapse caused by the inhibitor alone: DIV3 hippocampal neurons, 5 μM EHT1864 30 min, 100 nM ITX3 45 min
# Description: as §1, §2
# Cells were plated on gridded glass bottom dishes (MatTek Corporation) and imaged at DIV3 in phenol red-free Neurobasal medium (Invitrogen) supplemented with 30 mM HEPES-NaOH, pH7.4 using an Olympus IX71 inverted microscope driven by IPLab software (BD Biosciences) and equipped with a 60× PlanApoN objective (NA 1.42), a Hamamatsu EM-CCD camera and a heated stage maintained at 37° C., or driven by softWoRX software (version 3.7.1, DeltaVision), and equipped with a CoolSnap HQ2 camera (Photometrics) and an environmental chamber maintained at 37° C. Images were taken every 15 seconds. After live imaging cells were fixed, counterstained for p75, located by grid number and examined for p75 expression. All movies were exported and processed using IPLab (BD Biosciences), softWoRX (version 3.7.1, DeltaVision) and ImageJ (NIH) software. Filopodia length and speed were both analyzed using ImageJ (NIH) software. For this, two times ten consecutive frames, spaced 5-10 min apart, were analyzed before and again after treatment. In the length analysis, a line was drawn along an individual filopodium and measured at every time point, and the measurements were averaged before and after treatment. For the speed analysis, the filopodial tip was tracked using the ImageJ Manual Tracking plugin. Up to four individual filopodia were analyzed per movie, and a minimum of four movies taken from separate experiments were analyzed per condition.
# as §3, with “HT1080 cells were grown in DMEM/10% fetal bovine serum (both Invitrogen) and transfected using the AMAXA nucleofector (Lonza) according to manufacturer's instructions. 293FT cells were grown in DMEM/10% fetal bovine serum and transfected with Lipofectamine2000 according to manufacturer's instructions.” left out
# Rac = Rac activity assay (GST-Pak-CRIB pull-down of activated Rac); format: cell-based, mouse; details: primary neuronal cultures
# Description: Rac activity assays were performed as described previously (NEUBRAND, V. E. et al., Journal of Cell Science 123:2111-2123 (2010)). […] Cells were lysed in lysis buffer supplemented with 10 mM MgCl, lysates were cleared by centrifugation at 9000 g for 1 min, and cleared lysates were incubated with GST or GST-Pak-CRIB beads for 30 min at 4° C. Beads were washed and isolated active Rac was analyzed by Western blot. As a control, extra lysates were incubated with 0.1 mM GDP or 0.1 mM GTPγS for 30 min at room temperature before incubation with GST-Pak-CRIB beads. Western blots were analyzed by densitometry using ImageJ software, and isolated active Rac was normalized to the input.
# GST and GST-Pak-CRIB proteins were expressed in E. coli BL21DE3 cells at 25° C. for 3 hours. Bacteria were disrupted by incubation with PBS supplemented with lysozyme on ice for 30 min and subsequent addition of 1 mM MgCl2, 0.1% TritonX-100 and 0.1 mg/ml DNAse for an additional 30 min. Bacterial lysates were cleared by centrifugation for 5 min at 3000 g and cleared lysates were incubated with glutathione sepharose. Beads were washed and the purity of the recombinant proteins was analyzed by Coomassie blue staining. 20 μg of sepharose coupled purified protein was used per reaction.
Molecule,effect of pretreatment on proNGF-induced growth cone / filopodial collapse [1],growth cone collapse caused by the inhibitor alone [2],other results
"20-28: small peptide inhibitor 20-28 (of PKC) (FARKGALRQ; UniProt P17252 20-28, looked up, fragment)",exposure to proNGF failed to induce collapse of actin-rich structures,,
"O=c1cc(CN2CCOCC2)occ1OCCCCCSc1ccnc2cc(C(F)(F)F)ccc12 [EHT 1864, reference compound]",,led to the collapse of growth cone structures,Rac activity after inhibitor treatment (Rac): striking decrease in Rac activity
Cn1c2ccccc2c2c3c(c4c5ccccc5n(CCC#N)c4c21)CNC3=O [Gö6976],exposure to proNGF failed to induce collapse of actin-rich structures,,"effect of the agent alone on neuronal / actin morphology ([1]; agent alone, without proNGF): had no effect on actin morphology"
"Cc1cc(/C=c2/sc3nc4ccccc4n3c2=O)c(C)n1-c1ccccc1 [ITX3, reference compound]",,led to the collapse of growth cone structures,Rac activity after inhibitor treatment (Rac): striking decrease in Rac activity
"C[C@@H](N)[C@H]1CC[C@H](C(=O)Nc2ccncc2)CC1 [Y-27632, reference compound]",nor did they interferen with proNGF-mediated growth cone collapse,neither induced growth cone collapse,
C3 transferase [reference compound],nor did they interferen with proNGF-mediated growth cone collapse,neither induced growth cone collapse,
"NGF: mature nerve growth factor (Harlan) (protein, UniProt P01139 122-241, looked up) Beta-nerve growth factor: SSTHPVFHMGEFSVCDSVSVWVGDKTTATDIKGKEVTVLAEVNINNSVFRQYFFETKCRASNPVESGCRGIDSKHWNSYCTTTHTFVKALTTDEKQAAWRFIRIDTACVCVLSRKATRRG",,,"growth cone collapse ([2]; p75NTR-positive cells, 20 min exposure, 10 ng/ml proNGF, 10 ng/ml proBDNF with K252a, 5 ng/ml NGF): nor did NGF lead to actin rearrangements"

# — US20130336988A1, “METHODS FOR TREATING EARLY STAGE OR MILD NEUROLOGICAL DISORDERS” (NEW YORK UNIVERSITY, priority 2010, published 2013)
